Measurements published in publication PMC8509773, “3-Pyridinylidene Derivatives of Chemically Modified Lupane and Ursane Triterpenes as Promising Anticancer Agents by Targeting Apoptosis” (International Journal of Molecular Sciences, 2021).

Key:
Assay in all cases: NCI-60 SRB screening (one-dose and five-dose)
Assay type in all cases: cell-based, human
786-0 = settings: 786-0, 10 μM, 48 h
Experimental: (§1) The compounds were added at a single concentration and the cell cultures were incubated for 48 h. The end point determinations were made with a protein binding dye, sulforhodamine B (SRB). […] The percentage of growth was evaluated spectrophotometrically versus controls not treated with test agents after 48-h exposure and using SRB protein assay to estimate cell viability or growth. […] Furthermore, mean graph midpoints (MG_MID) were calculated for each of the parameters, giving an average activity parameter over all cell lines for the tested compound. For the MG_MID calculation, insensitive cell lines were included with the highest concentration tested.

ACHN = settings: 10 μM, 48 h
Experimental: as §1

CCRF-CEM = settings: 10 μM, 48 h
Experimental: as §1

DU-145 = settings: DU-145, 10 μM, 48 h
Experimental: as §1

EKVX = settings: 10 μM, 48 h
Experimental: as §1

HCC-2998 = settings: HCC-2998, 10 μM, 48 h
Experimental: as §1

HCT-116 = settings: HCT-116, 10 μM, 48 h
Experimental: as §1

HCT-15 = settings: HCT-15, 10 μM, 48 h
Experimental: as §1

HL-60(TB) = settings: 10 μM, 48 h
Experimental: as §1

HOP-92 = settings: HOP-92, 10 μM, 48 h
Experimental: as §1

HS 578T = settings: 10 μM, 48 h
Experimental: as §1

K-562 = settings: K-562, 10 μM, 48 h
Experimental: as §1

KM-12 = settings: KM-12, 10 μM, 48 h
Experimental: as §1

M14 = settings: M14, 10 μM, 48 h
Experimental: as §1

MALME-3M = settings: 10 μM, 48 h
Experimental: as §1

MCF7 = settings: MCF7, 10 μM, 48 h
Experimental: as §1

MDA-MB-231/ATCC = settings: 10 μM, 48 h
Experimental: as §1

MDA-MB-435 = settings: MDA-MB-435, 10 μM, 48 h
Experimental: as §1

MDA-MB-468 = settings: MDA-MB-468, 10 μM, 48 h
Experimental: as §1

MOLT-4 = settings: MOLT-4, 10 μM, 48 h
Experimental: as §1

NCI-H322M = settings: 10 μM, 48 h
Experimental: as §1

NCI-H460 = settings: NCI-H460, 10 μM, 48 h
Experimental: as §1

NCI/ADR-RES = settings: 10 μM, 48 h
Experimental: as §1

OVCAR-3 = settings: OVCAR-3, 10 μM, 48 h
Experimental: as §1

OVCAR-4 = settings: OVCAR-4, 10 μM, 48 h
Experimental: as §1

OVCAR-5 = settings: OVCAR-5, 10 μM, 48 h
Experimental: as §1

OVCAR-8 = settings: OVCAR-8, 10 μM, 48 h
Experimental: as §1

RXF 393 = settings: RXF 393, 10 μM, 48 h
Experimental: as §1

SF-268 = settings: SF-268, 10 μM, 48 h
Experimental: as §1

SF-295 = settings: SF-295, 10 μM, 48 h
Experimental: as §1

SK-MEL-28 = settings: SK-MEL-28, 10 μM, 48 h
Experimental: as §1

SK-MEL-2 = settings: SK-MEL-2, 10 μM, 48 h
Experimental: as §1

SK-MEL-5 = settings: SK-MEL-5, 10 μM, 48 h
Experimental: as §1

SK-OV-3 = settings: SK-OV-3, 10 μM, 48 h
Experimental: as §1

SN12C = settings: 10 μM, 48 h
Experimental: as §1

SW-620 = settings: SW-620, 10 μM, 48 h
Experimental: as §1

TK-10 = settings: TK-10, 10 μM, 48 h
Experimental: as §1

UACC-257 = settings: UACC-257, 10 μM, 48 h
Experimental: as §1

UO-31 = settings: UO-31, 10 μM, 48 h
Experimental: as §1

BT-549 = settings: BT-549, 10 μM, 48 h
Experimental: as §1

Compound | Growth Percent (786-0) [%] | Growth Percent (ACHN) [%] | Growth Percent (CCRF-CEM) [%] | Growth Percent (DU-145) [%] | Growth Percent (EKVX) [%] | Growth Percent (HCC-2998) [%] | Growth Percent (HCT-116) [%] | Growth Percent (HCT-15) [%] | Growth Percent (HOP-92) [%] | Growth Percent (HS 578T) [%] | Growth Percent (KM-12) [%] | Growth Percent (M14) [%] | Growth Percent (MALME-3M) [%] | Growth Percent (MCF7) [%] | Growth Percent (MDA-MB-231/ATCC) [%] | Growth Percent (MDA-MB-435) [%] | Growth Percent (MDA-MB-468) [%] | Growth Percent (NCI-H322M) [%] | Growth Percent (NCI-H460) [%] | Growth Percent (NCI/ADR-RES) [%] | other results
CC(=O)[C@H]1C[C@]23CC[C@]4(C)[C@H](CC[C@@H]5[C@@]6(C)CCC(=O)C(C)(C)[C@@H]6CC[C@]54C)[C@H]2[C@H](C)[C@@]1(C)OC3 [Compound 2, 3-oxo-21β-acetyl-20β,28-epoxy-18α,19βH-ursane] | 89.64 | 99.80 | 104.98 | 98.96 | 71.73 | 109.84 | 100.51 | 111.38 | 95.88 | 103.91 | 102.54 | 107.08 | 109.60 | 90.80 | 85.22 | 100.67 | 108.53 | 106.71 | 94.87 | 102.89 | Growth Percent (HL-60(TB)): 133.26%; Growth Percent (K-562): 103.93%; Growth Percent (MOLT-4): 100.88%; Growth Percent (OVCAR-3): 119.38%; Growth Percent (OVCAR-4): 85.13%; Growth Percent (OVCAR-5): 96.55%; Growth Percent (OVCAR-8): 104.68%; Growth Percent (RXF 393): 76.40%; Growth Percent (SF-268): 90.95%; Growth Percent (SF-295): 99.35%; Growth Percent (SK-MEL-28): 109.33%; Growth Percent (SK-MEL-2): 105.22%; Growth Percent (SK-MEL-5): 100.12%; Growth Percent (SK-OV-3): 118.18%; Growth Percent (SN12C): 87.69%; Growth Percent (SW-620): 95.81%; Growth Percent (TK-10): 76.40%; Growth Percent (UACC-257): 103.91%; Growth Percent (UO-31): 66.99%
C[C@H]1[C@@H]2[C@H]3CC[C@@H]4[C@@]5(C)CC[C@H](O)C(C)(C)[C@@H]5CC[C@@]4(C)[C@]3(C)CC[C@]23CO[C@@]1(C)[C@@H](C(=O)/C=C/c1ccco1)C3 [Compound 5, 3β-Hydroxy-21-[3-(2E-furyl)-prop-2-en-1-one]-20β,28-epoxy-18α,19βH-ursane] | 103.94 | 44.33 | 100.63 | 102.22 | 104.96 | 104.00 | 100.13 | 105.61 | 65.36 | 95.83 | 99.96 | 34.35 | −11.31 | 101.23 | 82.90 | 17.83 | 19.35 | 88.29 | 109.09 | 95.25 | Growth Percent (BT-549): 104.50%; Growth Percent (OVCAR-3): 102.55%; Growth Percent (OVCAR-4): 111.19%; Growth Percent (OVCAR-5): 102.21%; Growth Percent (OVCAR-8): 99.33%; Growth Percent (RXF 393): 109.55%; Growth Percent (SF-268): 96.31%; Growth Percent (SF-295): 109.70%; Growth Percent (SK-MEL-28): 36.66%; Growth Percent (SK-MEL-2): 9.51%; Growth Percent (SK-MEL-5): 8.55%; Growth Percent (SK-OV-3): 102.58%; Growth Percent (SN12C): 100.53%; Growth Percent (SW-620): 97.06%; Growth Percent (TK-10): 97.40%; Growth Percent (UACC-257): −8.91%; Growth Percent (UO-31): 77.02%
